According to patent US7517998B2, “Non nucleoside reverse transcriptase inhibitors” (priority 2004, dated 2009):

Target: T1, K103NNY181C mutant reverse transcriptase (Human immunodeficiency virus type 1 group M subtype B, UniProt P04585, K690N/Y768C)
T1 construct: mutations that occur in the reverse transcriptase segment of the pol gene
Experiment: Reverse transcriptase enzymatic assay (PicoGreen), K103N/Y181C mutant RT
Type: biochemical, HIV-1
Conditions: IC50 mut (nM), mutant (K103N/Y181C) reverse transcriptase, enzymatic assay of Example 24
Procedure: The enzymatic assay employed is described as follows: The reverse transcriptase (RT) enzyme assay has been adapted to a 96-well microtiter plate format and uses PicoGreen™ as a fluorescent intercalator. More explicitly, the HIV-1 RT enzyme was thawed and appropriately diluted into Tris/HCl 50 mM pH 7.8 containing NaCl 60 mM, MgCl2.6H2O 2 mM, DTT 6 mM, GSH 2 mM and 0.02% w/v Chaps to give ≈10 nM enzyme. To 10 μL of this enzyme solution was added 10 μL of inhibitor solution (40 μM to 2.032 nM inhibitor in the same assay buffer as above containing 4% v/v DMSO). The plate was pre-incubated for 15 minutes at room temperature before proceeding to the next step. In this pre-incubation step, the highest and lowest inhibitor concentrations were 20 μM and 1.016 nM respectively and the concentration of DMSO was 2% v/v. Then the enzymatic reaction was initiated by addition of 20 μL of substrate solution. The final reaction mixture contained Tris/HCl 50 mM pH 7.8, NaCl 60 mM, MgCl2.6H2O 2 mM, DTT 6 mM, GSH 2 mM, CHAPS 0.02% w/v, DMSO 1% v/v, poly rC 45 nM, dG15 4.5 nM, dGTP 3.6 μM, and 2.5 nM enzyme. In this incubation step, the highest and lowest inhibitor concentrations were 10 μM and 0.508 nM respectively. After addition of the substrate cocktail, the plate was covered with a plastic seal and incubated for 50 minutes at 37° C. in a dry incubator. The reaction was then quenched by addition of 5 μL of EDTA 0.5 M. The plate was shaken for 30 seconds at medium speed and incubated for 5 minutes at room temperature. Then 160 μL of PicoGreen™ 1:400 dilution from commercial stock (diluted in Tris 20 mM pH 7.5 with EDTA 1 mM) was added and the plate was shaken for 30 seconds and incubated for 10 minutes at room temperature. The plate was then analyzed using a POLARstar Galaxy fluorometer (BMG Labtechnologies) with λex and λem of 485 nm and 520 nm respectively. Each well was read for 1.25 second. Each row contained at its extremities a blank and a control well.

| SMILES | IC50 |
| --- | --- |
| CC(C)(C)c1ccc(-n2nnnc2SCC(=O)Nc2ccc(NC(=O)Cc3ccccc3C(F)(F)F)cc2Cl)c(Cl)c1 [Compound 7045] | 432 nM |
| CC(C)(C)c1ccc(-n2nnnc2SCC(=O)Nc2ccc(NC(=O)Cc3c[nH]c4ccccc34)cc2Cl)c(Cl)c1 [Compound 7043] | 145 nM |
| CC(C)(C)c1ccc(-n2nnnc2SCC(=O)Nc2ccc(NC(=O)c3cccc(O)c3)cc2Cl)c(Cl)c1 [Compound 7012] | 128 nM |

Same assay, conditions: IC50 mut, K103N/Y181C mutant reverse transcriptase, enzymatic assay of Example 24

| SMILES | IC50 |
| --- | --- |
| CC(C)(C#Cc1ccc(NC(=O)CSc2nnnn2-c2ccc(C3CC3)cc2Cl)c(Cl)c1)NC(=O)C1CC1 [Compound 4079] | 6.8 nM |
| CC(CC(=O)O)NC(=O)COC(C)(C)C#Cc1ccc(NC(=O)CSc2nnnn2-c2ccc(C(C)(C)C)cc2Cl)c(Cl)c1 (centres unmarked) [Compound 4046] | 23 nM |
| CNCCOC(=O)COC(C)(C)C#Cc1ccc(NC(=O)CSc2nnnn2-c2ccc(C(C)(C)C)cc2Cl)c(Cl)c1 [Compound 4035] | 56 nM |
| CC(C)(N)C#Cc1ccc(NC(=O)CSc2nnnn2-c2ccc(C3CC3)cc2Cl)c(Cl)c1F [Compound 4151] | 22.5 nM |
| COC(C)(C)C#Cc1ccc(NC(=O)CSc2nnnn2-c2ccc(C3CC3)cc2Cl)c(Cl)c1 [Compound 4074] | 35.5 nM |
| CC(C)(C#Cc1ccc(NC(=O)CSc2nnnn2-c2ccc(C(C)(C)C)cc2Cl)c(Cl)c1)OCC(=O)Nc1ccc(/C=C/C(=O)O)cc1 [Compound 4026] | 63 nM |
| CC(C)(C#Cc1ccc(NC(=O)CSc2nnnn2-c2cc(C(C)(C)C)cc(Br)c2Cl)c(Cl)c1)NC(=O)c1cc[n+]([O-])cc1 [Compound 4223] | 30 nM |
| CC(C)(C#Cc1ccc(NC(=O)CSc2nnnn2-c2ccc(C3CC3)cc2Cl)c(Cl)c1)C(=O)N1CCC(C(=O)O)CC1 [Compound 4149] | 16.5 nM |
| CC(C)(C#Cc1ccc(NC(=O)CSc2nnnn2-c2cc(CC3CC3)ccc2Cl)c(Cl)c1)C(=O)O [Compound 4213] | 32.5 nM |
| CC(C)(C#Cc1ccc(NC(=O)CSc2nnnn2-c2ccc(C(C)(C)C)cc2Cl)c(Cl)c1)C(=O)NCCN1CCOCC1 [Compound 4013] | 62 nM |
| CC(C)(C#Cc1ccc(NC(=O)CSc2nnnn2-c2cc(C(C)(C)C)ccc2Cl)c(Cl)c1)NC(=O)CN1CCC(C(=O)O)CC1 [Compound 4204] | 35 nM |
| CC(C)(C#Cc1ccc(NC(=O)CSc2nnnn2-c2ccc(C3CC3)cc2Cl)c(Cl)c1)OCCNC1CC1 [Compound 4117] | 52 nM |
| CN(C)CC(=O)NC(C)(C)C#Cc1ccc(NC(=O)CSc2nnnn2-c2cc(C(F)(F)F)ccc2Cl)c(Cl)c1 [Compound 4138] | 43 nM |
| CC(C(=O)O)C(=O)NC(C)(C)C#Cc1ccc(NC(=O)CSc2nnnn2-c2ccc(C3CC3)cc2Cl)c(Cl)c1 (centres unmarked) [Compound 4234] | 15.5 nM |
| CC(C)(C#Cc1ccc(NC(=O)CSc2nnnn2-c2cc(C(F)(F)F)ccc2Cl)c(Cl)c1)OCCOc1ccncc1 [Compound 4168] | 108 nM |
| CC(C)(C#Cc1ccc(NC(=O)CSc2nnnn2-c2cc(C(F)(F)F)cc(C3CC3)c2Cl)c(Cl)c1)OCCN1CCC(F)(F)C1 [Compound 4242] | 854 nM |
| COC(=O)C(C)(C)C#Cc1ccc(NC(=O)CSc2nnnn2-c2cc(C(F)(F)F)ccc2Cl)c(Cl)c1 [Compound 4077] | 44.5 nM |

| SMILES | IC50 |
| --- | --- |
| CC(C)(C#Cc1ccc(NC(=O)CSc2nnnn2-c2ccc(C3CC3)cc2Cl)c(Cl)c1)NC(=O)OC(C)(C)C [Compound 4069] | 112 nM |
| CC(C)(C)c1ccc(-n2nnnc2SCC(=O)Nc2ccc(C#CC3CC3)cc2Cl)c(Cl)c1 [Compound 4032] | 39 nM |
| CC(C)(O)C#Cc1ccc(NC(=O)CSc2nnnn2-c2c(F)ccc(C(F)(F)F)c2Cl)c(Cl)c1 [Compound 4022] | 185 nM |
| CC(C)(C#Cc1ccc(NC(=O)CSc2nnnn2-c2ccccc2Cl)c(Cl)c1)C(=O)O [Compound 4207] | 442 nM |
| Cc1cc(C(F)(F)F)cc(-n2nnnc2SCC(=O)Nc2ccc(C#CC(C)(C)O)cc2Cl)c1Cl [Compound 4030] | 21 nM |
| CCOC(=O)NC(C)(C)C#Cc1ccc(NC(=O)CSc2nnnn2-c2ccc(C3CC3)cc2Cl)c(Cl)c1 [Compound 4081] | 19.5 nM |
| CC(C)(C#Cc1ccc(NC(=O)CSc2nnnn2-c2ccc(C(C)(C)C)cc2Cl)c(Cl)c1)OCC(=O)N1CCOCC1 [Compound 4039] | 40 nM |
| CC(C)(C#Cc1ccc(NC(=O)CSc2nnnn2-c2ccc(C3(C)CC3)cc2Cl)c(Cl)c1)C(=O)O [Compound 4173] | 51 nM |
| CCC(N)(C#Cc1ccc(NC(=O)CSc2nnnn2-c2ccc(C3CC3)cc2Cl)c(Cl)c1)CC [Compound 4068] | 38.5 nM |
| CC(C)(N)C#Cc1ccc(NC(=O)CSc2nnnn2-c2cc(Br)ccc2Cl)c(Cl)c1 [Compound 4220] | 97.5 nM |
| CC(C)(N)C#Cc1ccc(NC(=O)CSc2nnnn2-c2cc(C(F)(F)F)ccc2Cl)c(Cl)c1F [Compound 4163] | 83 nM |
| Cc1cc(-n2nnnc2SCC(=O)Nc2ccc(C#CC(C)(C)O)cc2Cl)c(Cl)c(C(F)(F)F)c1 [Compound 4031] | 264 nM |
| CC(C)(C#Cc1ccc(NC(=O)CSc2nnnn2-c2ccc(C(C)(C)C)cc2Cl)c(Cl)c1)COC(N)=O [Compound 4033] | 36 nM |
| CC(C)(O)C#Cc1ccc(NC(=O)CSc2nnnn2-c2ccc(C3CC3)cc2Cl)c(Br)c1 [Compound 4078] | 13.5 nM |
| CC(C)(C#Cc1ccc(NC(=O)CSc2nnnn2-c2ccc(C3CC3)cc2Cl)c(Cl)c1F)NC(=O)c1cc[n+]([O-])cc1 [Compound 4157] | 5.95 nM |
| CC(C)(N)C#Cc1ccc(NC(=O)CSc2nnnn2-c2cc(C(F)(F)F)cc(C3CC3)c2Cl)c(Cl)c1F [Compound 4237] | 91.5 nM |

Same assay, conditions: IC50 mut, mutant reverse transcriptase, enzymatic assay of Example 24

| SMILES | IC50 |
| --- | --- |
| Cc1nnc(SCC(=O)Nc2ccc(C#CC(C)(C)COC(N)=O)cc2Cl)n1-c1ccc(C2CC2)cc1Cl [Compound 1011] | 21 nM |
| CC(C)(C)c1ccc(-n2nnnc2SCC(=O)Nc2ccc(C(=O)NCCO)cc2Cl)c(Cl)c1 [Compound 6016] | 35 nM |
| CC(C)(C)c1ccc(-n2nnnc2SCC(=O)Nc2ccc(OCC(=O)NCC(=O)O)cc2Cl)c(Cl)c1 [Compound 5020] | 163 nM |
| Cc1cc(C(F)(F)F)cc(-n2nnnc2SCC(=O)Nc2ccc(-c3ccc(CC(=O)O)cc3)cc2Cl)c1Cl [Compound 2044] | 29 nM |
| CN(C)c1ccc(NC(=O)c2ccc(NC(=O)CSc3nnnn3-c3ccc(C(C)(C)C)cc3Cl)c(Cl)c2)cc1 [Compound 6012] | 47 nM |
| Cc1ccc(-n2nncc2SCC(=O)Nc2ccc(-c3ccc(CC(=O)O)cc3)cc2Cl)c(Cl)c1 [Compound 1005] | 730 nM |
| CC(C)(C)c1ccc(-n2nnnc2SCC(=O)Nc2ccc(S(=O)(=O)NCC(=O)O)cc2Cl)c(Cl)c1 [Compound 3032] | 97.5 nM |
| CC(C)(C)c1ccc(-n2nnnc2SCC(=O)Nc2ccc(OCC(=O)N3CCOCC3)cc2Cl)c(Cl)c1 [Compound 5004] | 41 nM |
| CC(C)(C)c1ccc(-n2nnnc2SCC(=O)Nc2ccc(OCC(=O)Nc3ccc(N4CCOCC4)cc3)cc2Cl)c(Cl)c1 [Compound 5005] | 216 nM |
| CC(C)(C)c1ccc(-n2nnnc2SCC(=O)Nc2ccc(OCC(=O)N3CCC(C(=O)O)CC3)cc2Cl)c(Cl)c1 [Compound 5028] | 39 nM |
| Cc1ccc(-n2nnnc2SCC(=O)Nc2ccc(-c3cccc(C(=O)O)c3)cc2Cl)c(Cl)c1 [Compound 3003] | 241 nM |
| Cc1ccc(-n2nnnc2SCC(=O)Nc2ccc(-c3cccc(CC(=O)O)c3)cc2Cl)c(Cl)c1 [Compound 3004] | 93 nM |
| COC(=O)/C=C/c1ccc(NC(=O)CSc2nnnn2-c2ccc(C)cc2Cl)c(Cl)c1 [Compound 3005] | 305 nM |
| O=C(O)Cc1ccc(-c2ccc(NC(=O)CSc3nnnn3-c3ccc(C4CC4)cc3Cl)c(Br)c2)cc1 [Compound 2048] | 13 nM |
| CC(C)(C)c1ccc(-n2nnnc2SCC(=O)Nc2ccc(C(=O)NCCc3ccncc3)cc2Cl)c(Cl)c1 [Compound 6023] | 22 nM |
| CC(C)(C)c1ccc(-n2nnnc2SCC(=O)Nc2ccc(OCC(=O)NCCN3CCOCC3)cc2Cl)c(Cl)c1 [Compound 5007] | 244 nM |
| CC(C)(C)c1ccc(-n2nnnc2SCC(=O)Nc2ccc(-c3ccc(OCCN4CCCCC4)cc3)cc2Cl)c(Cl)c1 [Compound 2039] | 28 nM |
| COC(=O)NS(=O)(=O)c1ccc(NC(=O)CSc2nnnn2-c2ccc(C3CC3)cc2Cl)c(Cl)c1 [Compound 3040] | 236 nM |
| CC(C)(C)c1ccc(-n2nnnc2SCC(=O)Nc2ccc(-c3cccc(C(=O)O)c3)cc2Cl)c(Cl)c1 [Compound 3022] | 50 nM |
| CC(C)(C)c1ccc(-n2nnnc2SCC(=O)Nc2ccc(OCC(=O)NCCc3ccncc3)cc2Cl)c(Cl)c1 [Compound 5024] | 66 nM |
